Source: patent US6369079B1 (Sepracor, Inc., priority 1998, dated 2002)
pIC50: −log10 of the molar value.

What was measured:
[1] = cited from earlier work
[2] = co-administration with ketoconazole; cited from earlier work
[3] = molecular target: T1, cloned human serotonin 5-HT1A receptor (Homo sapiens, UniProt P08908); assay: R-SAT 5-HT1A receptor activity (agonist/antagonist); type: cell-based; settings: antagonist activity against 2 μM 5-HT, NIH 3T3 cells, read-out: Calculated IC50 at 5-HT1A receptor
T1 construct: host or cells: NIH 3T3 cells
T1 sequence (P08908 1-422): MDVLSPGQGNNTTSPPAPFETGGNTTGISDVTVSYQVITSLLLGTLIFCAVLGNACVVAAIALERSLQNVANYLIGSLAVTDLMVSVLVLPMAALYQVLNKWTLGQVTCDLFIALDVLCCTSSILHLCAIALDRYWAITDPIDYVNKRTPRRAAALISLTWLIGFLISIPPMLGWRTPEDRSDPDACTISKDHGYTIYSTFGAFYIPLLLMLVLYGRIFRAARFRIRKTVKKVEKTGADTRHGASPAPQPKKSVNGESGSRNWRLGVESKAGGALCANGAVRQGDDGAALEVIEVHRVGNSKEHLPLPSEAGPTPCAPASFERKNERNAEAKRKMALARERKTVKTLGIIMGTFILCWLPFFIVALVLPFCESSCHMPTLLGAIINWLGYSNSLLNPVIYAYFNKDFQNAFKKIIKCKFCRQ
Experimental: The assay involves co-expression of a marker enzyme, β-galactosidase, with the serotonin receptor of interest. Ligands stimulate proliferation of cells that express the receptor and, therefore, the marker. Ligand-induced effects can be determined by assay of the marker.
NIH 3T3 cells are incubated, plated, and then transfected using human 5-HT1A serotonin receptors, pSV-β-galactosidase, and salmon sperm DNA. The medium is changed one day later, and after 2 days, aliquots of the trypsinized cells are placed in wells of a 96 well plate. After five days in culture in the presence of the ligands, the levels of β-galactosidase are measured. The cells are then rinsed and incubated with the substrate, […] β-D-galactopyranoside.
Data from antagonist inhibition of the compounds are fit to the equation:
Response Max Response +(Min Response)/1+(Ligand Conc/[…])

[4] = molecular target: T2, 5-HT3 receptor subtypes derived from N1E-115 cells (Mus musculus, UniProt P23979); assay: 5-HT3 receptor radioligand binding (Cerep); settings: IC50 for binding to 5-HT3 sites, inhibition of specific radioligand binding
T2 construct: host or cells: N1E-115 cells
T2 sequence (P23979 24-489): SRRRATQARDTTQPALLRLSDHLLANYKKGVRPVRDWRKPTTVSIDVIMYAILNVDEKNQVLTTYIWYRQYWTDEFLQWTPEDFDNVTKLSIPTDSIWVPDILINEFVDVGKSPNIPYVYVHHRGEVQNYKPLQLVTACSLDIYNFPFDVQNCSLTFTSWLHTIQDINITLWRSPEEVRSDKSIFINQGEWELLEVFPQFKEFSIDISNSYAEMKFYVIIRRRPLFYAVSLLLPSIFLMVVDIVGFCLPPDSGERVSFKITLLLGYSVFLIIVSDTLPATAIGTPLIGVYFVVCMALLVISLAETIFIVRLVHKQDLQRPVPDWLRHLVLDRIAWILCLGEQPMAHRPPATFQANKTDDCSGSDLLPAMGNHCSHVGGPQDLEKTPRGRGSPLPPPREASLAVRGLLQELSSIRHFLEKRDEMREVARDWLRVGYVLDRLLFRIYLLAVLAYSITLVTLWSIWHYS
Experimental: Following incubation with the appropriate ligands, the preparations are rapidly filtered under vacuum through GF/B glass fiber filters and washed with ice-cold buffer using a Brandel or Packard cell harvester.
(§1) Specific radioligand binding to the receptor is defined as the difference between total binding and nonspecific binding determined in the presence of an excess of unlabeled ligand. Results are expressed as a percent inhibition of specific binding obtained in the presence of the compounds.

[5] = molecular target: T3, 5-HT4 receptor subtypes derived from guinea-pig striata (Cavia porcellus, UniProt O70528); assay: 5-HT4 receptor radioligand binding (Cerep); settings: IC50 for binding to 5-HT4 sites, inhibition of specific radioligand binding
T3 construct: tissue Cerep, Celle l'Evescault, France; host or cells: guinea-pig striata
T3 sequence (O70528 whole entry): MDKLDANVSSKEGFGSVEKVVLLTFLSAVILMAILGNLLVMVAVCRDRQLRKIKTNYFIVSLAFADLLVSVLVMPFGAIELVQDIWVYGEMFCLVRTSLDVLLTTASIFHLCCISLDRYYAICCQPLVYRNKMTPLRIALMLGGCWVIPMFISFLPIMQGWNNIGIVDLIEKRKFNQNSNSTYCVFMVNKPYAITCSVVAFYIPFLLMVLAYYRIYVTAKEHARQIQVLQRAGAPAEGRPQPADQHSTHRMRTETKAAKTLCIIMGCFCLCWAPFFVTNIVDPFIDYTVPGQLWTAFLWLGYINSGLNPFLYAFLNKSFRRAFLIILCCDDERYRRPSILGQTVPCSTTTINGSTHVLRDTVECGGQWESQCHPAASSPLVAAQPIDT
Experimental: Following incubation with the appropriate ligands, the preparations are raidly filtered under vacuum through GF/B glass fiber filters and washed with ice-cold buffer using a Brandel or Packard cell harvester.
as §1

Row | pIC50 [3] | pIC50 [4] | pIC50 [5] | Compound | Absorption after oral administration ([1]; humans) | Fraction of dose metabolized ([1]; humans, mainly oxidative N-dealkylation or aromatic hydroxylation) | Bioavailability ([1]; oral administration to humans, rapid first-pass metabolism in the liver) | Increase of steady-state plasma levels [2] [fold]
1 | – | – | – | COc1cc(N)c(Cl)cc1C(=O)NC1CCN(CCCOc2ccc(F)cc2)CC1OC (racemic) [(±) Cisapride, cis-4-amino-5-chloro-N-[1-[3-(4-fluorophenoxy)propyl]-3-methoxy-4-piperidinyl]-2-methoxybenamide] | almost completely absorbed | More than 90% | 40-50% | 8
2 | 5.13 | 8.09 | 6.16 | COc1cc(N)c(Cl)cc1C(=O)NC1CCNCC1OC (racemic) [(±) Norcisapride, 4-amino-5-chloro-N-(3-methoxy-4-piperidinyl)-2-methoxybenzamide] | – | – | – | –
3 | 8.27 | 8.35 | 6.48 | COc1cc(N)c(Cl)cc1C(=O)NC1CCNCC1OC (single isomer, unassigned; (+)) [(+) Norcisapride, 4-amino-5-chloro-N-(3-methoxy-4-piperidinyl)-2-methoxybenzamide] | – | – | – | –
4 | 5.89 | 7.52 | 5.87 | COc1cc(N)c(Cl)cc1C(=O)NC1CCNCC1OC (single isomer, unassigned; (-)) [(−) Norcisapride, 4-amino-5-chloro-N-(3-methoxy-4-piperidinyl)-2-methoxybenzamide] | – | – | – | –
